# pIC50: −log10 of the molar value.
# Columns and labels:
# MDA-MB-468 [1] = experiment: Antitumor activity against human MDA-MB-468 cells xenografted in mouse assessed as tumor growth inhibition at 50 mg/kg, ip QD for 21 days; format: functional, organism-based; design: dose 50 mg/kg
# Aurora kinase B = Aurora kinase B (Homo sapiens, UniProt Q96GD4); experiment: Inhibition of AURKB (unknown origin) by FRET-based homogeneous assay
# Cytochrome P450 2D6 = Cytochrome P450 2D6 (Homo sapiens, UniProt P10635); experiment: (§1) Inhibition of CYP2D6 (unknown origin) using AMMC substrate after 45 mins by fluorescence assay; format: ADME
# Cytochrome P450 2D6, sequence (P10635 whole entry): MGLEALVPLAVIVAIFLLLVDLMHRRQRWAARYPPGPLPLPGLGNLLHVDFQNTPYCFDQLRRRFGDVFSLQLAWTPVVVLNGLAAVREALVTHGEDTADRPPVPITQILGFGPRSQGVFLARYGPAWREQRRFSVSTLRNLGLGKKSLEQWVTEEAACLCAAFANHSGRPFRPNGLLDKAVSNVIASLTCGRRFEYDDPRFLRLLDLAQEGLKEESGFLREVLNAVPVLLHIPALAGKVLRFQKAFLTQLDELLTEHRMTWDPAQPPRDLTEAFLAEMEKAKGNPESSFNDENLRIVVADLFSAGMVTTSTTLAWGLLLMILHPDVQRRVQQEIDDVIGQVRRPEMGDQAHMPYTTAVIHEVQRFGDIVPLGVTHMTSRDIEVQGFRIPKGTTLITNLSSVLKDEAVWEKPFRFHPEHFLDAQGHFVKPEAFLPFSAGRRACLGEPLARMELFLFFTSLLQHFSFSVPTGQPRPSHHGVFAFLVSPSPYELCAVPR
# [2] = Aqueous solubility at pH 7.4; format: physicochemical; settings: buffer
# [3] = Cmax in SCID mouse at 50 mg/kg, ip after 8 hrs by LCMS/MS method; format: ADME, organism-based; design: dose 50 mg/kg, route intraperitoneal; settings: in vivo
# [4] = molecular target: Serine/threonine-protein kinase PLK1 (Homo sapiens, UniProt P53350); experiment: Inhibition of PLK1 (unknown origin) by FRET-based homogeneous assay
# Serine/threonine-protein kinase PLK1, sequence (P53350 whole entry): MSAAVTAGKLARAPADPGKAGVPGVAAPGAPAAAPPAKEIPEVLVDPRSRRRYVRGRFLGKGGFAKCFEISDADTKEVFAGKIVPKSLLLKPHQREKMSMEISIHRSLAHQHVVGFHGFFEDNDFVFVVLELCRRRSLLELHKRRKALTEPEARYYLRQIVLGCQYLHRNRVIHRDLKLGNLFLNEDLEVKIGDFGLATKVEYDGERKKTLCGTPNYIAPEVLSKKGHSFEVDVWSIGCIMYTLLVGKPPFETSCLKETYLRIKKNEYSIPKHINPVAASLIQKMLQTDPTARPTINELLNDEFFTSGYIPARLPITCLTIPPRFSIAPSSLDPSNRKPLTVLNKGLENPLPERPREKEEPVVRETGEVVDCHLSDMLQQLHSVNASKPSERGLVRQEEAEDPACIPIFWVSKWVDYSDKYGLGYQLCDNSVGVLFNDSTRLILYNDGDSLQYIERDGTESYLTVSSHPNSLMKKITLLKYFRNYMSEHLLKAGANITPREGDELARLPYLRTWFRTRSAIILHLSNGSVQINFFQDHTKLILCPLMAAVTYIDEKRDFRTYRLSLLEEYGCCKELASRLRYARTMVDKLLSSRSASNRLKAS
# [5] = Half life in mouse liver microsomes at 1 uM in presence of NADPH by LC-MS method; format: ADME
# [6] = molecular target: T1, Serine/threonine-protein kinase PLK4 (Homo sapiens, UniProt O00444); experiment: Inhibition of human N-terminal GST-tagged PLK4 (1 to 391 residues) expressed in Escherichia coli incubated for 30 mins by ELISA method
# T1 sequence (O00444 whole entry): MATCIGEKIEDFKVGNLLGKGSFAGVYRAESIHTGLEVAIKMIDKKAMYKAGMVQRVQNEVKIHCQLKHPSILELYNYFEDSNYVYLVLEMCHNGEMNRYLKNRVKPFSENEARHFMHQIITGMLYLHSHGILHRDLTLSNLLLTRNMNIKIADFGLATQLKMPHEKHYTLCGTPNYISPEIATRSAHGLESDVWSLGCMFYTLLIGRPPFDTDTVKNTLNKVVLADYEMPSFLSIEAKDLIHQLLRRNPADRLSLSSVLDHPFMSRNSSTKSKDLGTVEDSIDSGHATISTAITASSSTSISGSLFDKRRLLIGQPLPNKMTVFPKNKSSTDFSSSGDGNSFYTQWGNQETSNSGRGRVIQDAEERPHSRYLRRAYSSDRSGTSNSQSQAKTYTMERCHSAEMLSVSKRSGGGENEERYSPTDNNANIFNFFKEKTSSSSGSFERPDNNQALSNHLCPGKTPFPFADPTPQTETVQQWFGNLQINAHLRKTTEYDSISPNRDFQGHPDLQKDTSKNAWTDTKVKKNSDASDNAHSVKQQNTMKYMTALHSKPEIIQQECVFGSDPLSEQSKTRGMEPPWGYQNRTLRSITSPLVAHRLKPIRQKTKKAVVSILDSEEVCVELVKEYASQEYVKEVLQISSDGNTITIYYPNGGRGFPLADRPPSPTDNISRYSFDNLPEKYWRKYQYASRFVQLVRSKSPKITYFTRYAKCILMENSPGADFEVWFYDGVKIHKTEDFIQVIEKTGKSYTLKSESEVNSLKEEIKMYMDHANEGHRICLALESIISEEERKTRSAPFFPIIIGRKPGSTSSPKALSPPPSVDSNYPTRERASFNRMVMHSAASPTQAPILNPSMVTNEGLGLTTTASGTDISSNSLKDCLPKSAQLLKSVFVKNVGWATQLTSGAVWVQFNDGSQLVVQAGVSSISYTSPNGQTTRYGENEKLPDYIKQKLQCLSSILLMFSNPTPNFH
# [7] = Half life in human liver microsomes at 1 uM in presence of NADPH by LC-MS method; format: ADME
# [8] = Protein binding in plasma (unknown origin); format: ADME, cell-free; settings: read-out: PPB (converted)
# Cytochrome P450 3A4 = Cytochrome P450 3A4 (Homo sapiens, UniProt P08684); experiment: Inhibition of CYP3A4 (unknown origin) using BFC substrate after 30 mins by fluorescence assay; format: ADME
# Cytochrome P450 3A4, sequence (P08684 whole entry): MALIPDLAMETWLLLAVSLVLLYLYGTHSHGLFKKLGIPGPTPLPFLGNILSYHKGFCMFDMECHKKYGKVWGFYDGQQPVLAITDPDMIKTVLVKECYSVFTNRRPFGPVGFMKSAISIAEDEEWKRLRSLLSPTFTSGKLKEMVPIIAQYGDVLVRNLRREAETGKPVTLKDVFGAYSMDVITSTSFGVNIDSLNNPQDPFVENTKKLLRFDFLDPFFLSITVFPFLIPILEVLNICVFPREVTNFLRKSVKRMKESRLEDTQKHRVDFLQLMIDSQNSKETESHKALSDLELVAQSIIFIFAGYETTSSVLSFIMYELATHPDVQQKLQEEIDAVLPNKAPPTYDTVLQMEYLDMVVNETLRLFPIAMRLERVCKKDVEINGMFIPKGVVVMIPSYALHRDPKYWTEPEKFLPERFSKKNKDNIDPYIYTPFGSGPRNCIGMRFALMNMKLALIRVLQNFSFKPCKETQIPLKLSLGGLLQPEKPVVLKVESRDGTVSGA
# [9] = molecular target: Serine/threonine-protein kinase PLK2 (Homo sapiens, UniProt Q9NYY3); experiment: Inhibition of PLK2 (unknown origin) by FRET-based homogeneous assay
# Serine/threonine-protein kinase PLK2, sequence (Q9NYY3 whole entry): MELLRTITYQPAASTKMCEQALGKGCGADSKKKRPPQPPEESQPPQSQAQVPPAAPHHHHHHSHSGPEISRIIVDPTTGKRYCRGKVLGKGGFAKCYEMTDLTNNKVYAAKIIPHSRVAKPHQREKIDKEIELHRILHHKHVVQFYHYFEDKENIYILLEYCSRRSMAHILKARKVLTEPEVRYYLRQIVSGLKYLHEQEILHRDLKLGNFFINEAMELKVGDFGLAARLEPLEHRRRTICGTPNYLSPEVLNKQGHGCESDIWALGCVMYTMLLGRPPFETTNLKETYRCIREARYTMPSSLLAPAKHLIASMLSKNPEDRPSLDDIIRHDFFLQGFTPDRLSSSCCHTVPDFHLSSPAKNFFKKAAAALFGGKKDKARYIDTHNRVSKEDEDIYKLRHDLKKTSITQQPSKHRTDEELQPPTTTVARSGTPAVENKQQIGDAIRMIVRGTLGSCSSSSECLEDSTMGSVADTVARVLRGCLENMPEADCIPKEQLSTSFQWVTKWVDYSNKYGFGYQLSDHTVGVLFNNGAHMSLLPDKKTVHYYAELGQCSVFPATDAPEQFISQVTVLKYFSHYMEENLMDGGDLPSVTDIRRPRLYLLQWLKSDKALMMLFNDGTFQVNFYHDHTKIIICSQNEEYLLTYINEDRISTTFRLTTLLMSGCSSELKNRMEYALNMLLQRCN
# [10] = molecular target: Serine/threonine-protein kinase PLK3 (Homo sapiens, UniProt Q9H4B4); experiment: Inhibition of PLK3 (unknown origin) by FRET-based homogeneous assay
# Serine/threonine-protein kinase PLK3, sequence (Q9H4B4 whole entry): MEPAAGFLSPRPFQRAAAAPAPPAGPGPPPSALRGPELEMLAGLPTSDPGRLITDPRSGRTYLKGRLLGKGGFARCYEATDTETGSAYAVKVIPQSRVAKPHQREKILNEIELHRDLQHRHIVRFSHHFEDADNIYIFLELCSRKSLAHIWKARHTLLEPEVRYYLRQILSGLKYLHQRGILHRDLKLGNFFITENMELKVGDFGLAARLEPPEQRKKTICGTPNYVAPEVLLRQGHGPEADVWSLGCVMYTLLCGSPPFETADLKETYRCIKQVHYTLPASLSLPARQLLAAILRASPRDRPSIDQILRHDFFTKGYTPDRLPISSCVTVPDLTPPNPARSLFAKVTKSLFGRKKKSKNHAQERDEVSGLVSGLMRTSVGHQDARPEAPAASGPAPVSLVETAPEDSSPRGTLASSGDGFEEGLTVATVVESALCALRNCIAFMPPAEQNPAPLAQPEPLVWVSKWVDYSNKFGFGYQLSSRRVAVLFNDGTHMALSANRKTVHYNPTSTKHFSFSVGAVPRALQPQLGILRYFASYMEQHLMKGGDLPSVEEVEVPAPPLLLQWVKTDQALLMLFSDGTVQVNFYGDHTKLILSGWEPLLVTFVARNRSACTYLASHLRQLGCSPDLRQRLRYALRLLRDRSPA
# [11] = molecular target: Vascular endothelial growth factor receptor 2 (Homo sapiens, UniProt P35968); experiment: Inhibition of KDR (unknown origin) by FRET-based homogeneous assay
# Vascular endothelial growth factor receptor 2, sequence (P35968 whole entry): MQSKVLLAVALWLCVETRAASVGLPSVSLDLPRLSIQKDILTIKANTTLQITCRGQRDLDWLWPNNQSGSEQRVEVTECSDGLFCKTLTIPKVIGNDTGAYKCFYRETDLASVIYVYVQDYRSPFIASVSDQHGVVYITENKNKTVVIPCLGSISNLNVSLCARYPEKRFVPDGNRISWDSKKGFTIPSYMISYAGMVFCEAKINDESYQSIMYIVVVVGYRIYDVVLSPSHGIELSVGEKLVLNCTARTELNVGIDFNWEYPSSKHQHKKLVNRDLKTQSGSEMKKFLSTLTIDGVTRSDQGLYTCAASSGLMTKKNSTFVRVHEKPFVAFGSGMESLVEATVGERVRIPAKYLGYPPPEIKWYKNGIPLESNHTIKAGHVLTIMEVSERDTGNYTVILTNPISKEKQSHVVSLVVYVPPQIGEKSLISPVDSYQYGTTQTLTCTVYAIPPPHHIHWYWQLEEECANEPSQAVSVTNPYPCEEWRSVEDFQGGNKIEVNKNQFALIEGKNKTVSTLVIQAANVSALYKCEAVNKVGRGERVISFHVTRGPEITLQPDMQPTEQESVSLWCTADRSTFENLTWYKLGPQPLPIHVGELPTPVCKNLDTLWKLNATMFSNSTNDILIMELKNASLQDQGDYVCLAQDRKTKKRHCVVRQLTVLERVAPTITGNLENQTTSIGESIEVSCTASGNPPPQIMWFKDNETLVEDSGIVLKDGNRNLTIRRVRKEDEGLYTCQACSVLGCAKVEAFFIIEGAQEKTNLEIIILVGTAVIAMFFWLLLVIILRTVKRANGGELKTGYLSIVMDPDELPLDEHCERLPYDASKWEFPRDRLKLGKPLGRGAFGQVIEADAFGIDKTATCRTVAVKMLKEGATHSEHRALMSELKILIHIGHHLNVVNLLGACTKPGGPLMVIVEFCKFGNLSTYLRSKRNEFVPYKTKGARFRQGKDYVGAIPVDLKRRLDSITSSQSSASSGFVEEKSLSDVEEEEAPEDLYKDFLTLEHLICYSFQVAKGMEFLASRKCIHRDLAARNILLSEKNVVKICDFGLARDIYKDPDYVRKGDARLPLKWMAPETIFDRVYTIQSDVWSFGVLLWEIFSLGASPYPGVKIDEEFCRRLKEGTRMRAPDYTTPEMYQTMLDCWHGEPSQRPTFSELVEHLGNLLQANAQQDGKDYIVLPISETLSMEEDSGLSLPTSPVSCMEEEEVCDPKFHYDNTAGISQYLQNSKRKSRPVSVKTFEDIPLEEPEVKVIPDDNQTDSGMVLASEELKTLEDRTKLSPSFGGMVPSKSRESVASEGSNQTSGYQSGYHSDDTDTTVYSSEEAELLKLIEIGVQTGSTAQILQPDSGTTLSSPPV
# [12] = molecular target: T2, Receptor-type tyrosine-protein kinase FLT3 (Homo sapiens, UniProt P36888); experiment: Inhibition of FLT3 (unknown origin) by FRET-based homogeneous assay
# T2 sequence (P36888 whole entry): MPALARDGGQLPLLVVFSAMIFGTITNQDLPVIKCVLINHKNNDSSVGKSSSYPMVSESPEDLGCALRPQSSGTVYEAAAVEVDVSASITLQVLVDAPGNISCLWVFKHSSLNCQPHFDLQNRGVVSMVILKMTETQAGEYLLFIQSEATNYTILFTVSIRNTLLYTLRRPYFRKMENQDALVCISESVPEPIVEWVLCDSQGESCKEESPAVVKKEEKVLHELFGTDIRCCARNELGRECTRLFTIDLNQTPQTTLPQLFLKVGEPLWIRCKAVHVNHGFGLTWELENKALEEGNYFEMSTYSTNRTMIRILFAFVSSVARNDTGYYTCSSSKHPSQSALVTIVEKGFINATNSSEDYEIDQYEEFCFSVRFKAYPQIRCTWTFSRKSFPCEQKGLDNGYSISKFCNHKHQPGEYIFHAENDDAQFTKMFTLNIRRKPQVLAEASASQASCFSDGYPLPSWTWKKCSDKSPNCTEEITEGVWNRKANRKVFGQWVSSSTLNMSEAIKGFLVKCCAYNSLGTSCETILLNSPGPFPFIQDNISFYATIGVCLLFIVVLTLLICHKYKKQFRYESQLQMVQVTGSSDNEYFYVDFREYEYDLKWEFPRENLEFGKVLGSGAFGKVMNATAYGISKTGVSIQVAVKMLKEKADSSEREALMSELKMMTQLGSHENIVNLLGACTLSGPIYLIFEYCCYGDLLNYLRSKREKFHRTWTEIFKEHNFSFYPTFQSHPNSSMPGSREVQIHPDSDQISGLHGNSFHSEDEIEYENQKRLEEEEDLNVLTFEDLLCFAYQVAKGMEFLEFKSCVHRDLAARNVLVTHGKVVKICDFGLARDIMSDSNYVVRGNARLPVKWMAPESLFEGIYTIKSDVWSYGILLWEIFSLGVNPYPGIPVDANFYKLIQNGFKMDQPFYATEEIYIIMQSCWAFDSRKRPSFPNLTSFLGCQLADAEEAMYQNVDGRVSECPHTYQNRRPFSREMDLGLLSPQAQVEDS
# CYP1A2 = molecular target: T3, CYP1A2 (Homo sapiens, UniProt P05177); experiment: (§2) Inhibition of CYP1A2 (unknown origin) using CEC substrate after 15 mins by fluorescence assay; format: ADME; settings: probe CEC
# T3 sequence (P05177 whole entry): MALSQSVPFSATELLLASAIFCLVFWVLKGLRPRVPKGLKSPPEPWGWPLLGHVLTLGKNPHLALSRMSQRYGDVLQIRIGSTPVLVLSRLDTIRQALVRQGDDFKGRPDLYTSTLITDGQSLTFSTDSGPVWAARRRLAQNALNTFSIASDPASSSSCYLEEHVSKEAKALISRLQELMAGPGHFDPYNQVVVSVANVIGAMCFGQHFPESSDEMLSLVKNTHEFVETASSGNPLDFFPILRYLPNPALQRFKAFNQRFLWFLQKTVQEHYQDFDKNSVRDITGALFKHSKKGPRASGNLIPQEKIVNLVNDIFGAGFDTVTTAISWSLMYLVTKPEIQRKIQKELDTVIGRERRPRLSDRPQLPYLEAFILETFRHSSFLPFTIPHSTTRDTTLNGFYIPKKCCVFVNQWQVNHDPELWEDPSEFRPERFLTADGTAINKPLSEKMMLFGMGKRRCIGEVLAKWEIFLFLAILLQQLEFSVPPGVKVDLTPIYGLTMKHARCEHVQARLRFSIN
# Cytochrome P450 2C9 = Cytochrome P450 2C9 (Homo sapiens, UniProt P11712); experiment: Inhibition of CYP2C9 (unknown origin) using MFC substrate after 45 mins by fluorescence assay; format: ADME
# Cytochrome P450 2C9, sequence (P11712 whole entry): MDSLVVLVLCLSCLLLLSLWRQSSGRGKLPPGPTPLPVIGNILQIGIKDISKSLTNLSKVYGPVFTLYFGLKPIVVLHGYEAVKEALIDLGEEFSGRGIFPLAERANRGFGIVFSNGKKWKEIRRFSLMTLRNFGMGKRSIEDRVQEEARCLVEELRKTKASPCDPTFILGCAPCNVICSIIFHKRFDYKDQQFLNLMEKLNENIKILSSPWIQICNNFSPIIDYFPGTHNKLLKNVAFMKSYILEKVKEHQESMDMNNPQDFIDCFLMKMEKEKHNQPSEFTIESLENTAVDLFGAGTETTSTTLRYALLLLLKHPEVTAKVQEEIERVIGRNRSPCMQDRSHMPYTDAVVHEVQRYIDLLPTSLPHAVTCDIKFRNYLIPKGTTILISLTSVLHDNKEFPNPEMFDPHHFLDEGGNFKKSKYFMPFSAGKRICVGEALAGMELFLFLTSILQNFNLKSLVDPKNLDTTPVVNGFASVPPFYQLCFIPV
# [13] = AUC in SCID mouse at 25 mg/kg, po by LCMS/MS method; format: ADME, organism-based; design: dose 25 mg/kg, route oral; settings: plasma
# [14] = Cmax in SCID mouse at 25 mg/kg, po by LCMS/MS method; format: ADME, organism-based; design: dose 25 mg/kg, route oral; settings: in vivo
# [15] = AUC in SCID mouse at 50 mg/kg, ip after 8 hrs by LCMS/MS method; format: ADME, organism-based; design: time < 8 hr, dose 50 mg/kg, route intraperitoneal; settings: plasma
# MDA-MB-468 [16] = experiment: Cytotoxicity against human MDA-MB-468 cells after 5 days by SRB assay; format: functional; settings: MDA-MB-468, 120 h
# MDA-MB-231 = experiment: Cytotoxicity against human MDA-MB-231 cells after 5 days by SRB assay; format: functional; settings: MDA-MB-231, 120 h
# Cytochrome P450 2C19 = Cytochrome P450 2C19 (Homo sapiens, UniProt P33261); experiment: Inhibition of CYP2C19 (unknown origin) using MFC substrate after 30 mins by fluorescence assay; format: ADME
# [17] = Cytotoxicity against human SKBR3 cells after 5 days by SRB assay; format: functional; settings: SK-BR-3, 120 h
# MCF7 = experiment: Cytotoxicity against human MCF7 cells after 5 days by SRB assay; format: functional; settings: MCF7, 120 h
# Cytochrome P450 1A2 = molecular target: T4, Cytochrome P450 1A2 (Homo sapiens, UniProt P05177); experiment: as §2; format: ADME
# T4 sequence (P05177 whole entry): T3 sequence (P05177 whole entry)
# Mus musculus = experiment: Toxicity in human MDA-MB-468 cells xenografted mouse assessed as reduction in body weight at 25 mg/kg, po QD for 21 days; format: organism-based; design: dose 25 mg/kg, route oral; settings: in vivo, 504 h
# CYP2D6 = CYP2D6 (Homo sapiens, UniProt P10635); experiment: as §1; format: ADME; settings: probe AMMC
# CYP2D6, sequence (P10635 whole entry): as the sequence (P10635 whole entry) above
SMILES,pIC50 (Cytochrome P450 2D6),solubility [2] [µg/mL],Cmax [3] [ng/mL],pIC50 [4],half-life at 1 µM [5] [min],pIC50 [6],half-life at 1 µM [7] [min],fraction unbound [8],pIC50 (Cytochrome P450 3A4),pIC50 [9],pIC50 [10],pIC50 [11],pIC50 [12],IC50 at 15 min (CYP1A2) [nM],pIC50 (Cytochrome P450 2C9),AUC at 8 h [15] [ng·h/mL],GI50 (MDA-MB-468 [16]) [nM],pIC50 (Cytochrome P450 2C19),GI50 (MCF7) [nM],pIC50 (Cytochrome P450 1A2),further results
Cc1cc(Nc2cc(N3CCN(C)CC3)nc(Sc3ccc(NC(=O)C4CC4)cc3)n2)n[nH]1,–,–,–,–,–,–,–,–,–,–,–,–,–,–,–,–,–,–,–,–,TGI (MDA-MB-468 [1]): 73%
O=C1Nc2ccccc2/C1=C\c1ccc2c(/C=C/c3ccncc3)n[nH]c2c1,4.70,0.21,< 10,< 4.00,6,8.62,29,0.011,6.00,< 4.00,< 4.00,7.47,7.46,> 10000,–,–,–,–,–,–,pIC50 (Aurora kinase B): 7.62
O=C1Nc2ccccc2[C@]12C[C@H]2c1ccc2c(/C=C/c3ccncc3)n[nH]c2c1 (relative stereo),6.15,0.4,1700,< 4.00,18,–,> 60,0.045,< 6.00,< 4.00,< 4.00,5.89,7.48,–,7.52,2900,360,6.59,600,5.85,AUC [13]: 650 ng·h/mL; Cmax [14]: 470 ng/mL; GI50 (MDA-MB-231): 680 nM; GI50 [17]: 20300 nM
CN(C)Cc1ccc(/C=C/c2n[nH]c3cc(/C=C4/C(=O)Nc5ccccc54)ccc23)cc1,–,< 0.1,870,–,7,8.40,40,0.016,6.03,–,–,–,7.46,> 10000,5.85,830,12,–,7,–,–
COc1ccc2c(c1)[C@]1(C[C@H]1c1ccc3c(/C=C/c4ccc(CN(C)C)cc4)n[nH]c3c1)C(=O)N2 (relative stereo),< 5.00,–,–,–,–,–,–,–,< 6.00,–,–,6.04,7.72,–,6.07,–,10,6.12,< 1,< 5.00,AUC [13]: 730 ng·h/mL; Cmax [14]: 350 ng/mL; GI50 (MDA-MB-231): < 10 nM; Activity (Mus musculus): Non-toxic; GI50 [17]: 6400 nM
O=C1Nc2ccccc2[C@]12C[C@H]2c1ccc2cn[nH]c2c1 (relative stereo),< 5.00,8,1200,–,49,–,> 60,0.17,< 5.00,–,–,< 5.00,5.49,–,< 5.00,1620,14000,5.00,16000,< 5.00,–
CN(C)Cc1ccc(/C=C/c2n[nH]c3cc([C@@H]4C[C@@]45C(=O)Nc4ccccc45)ccc23)cc1 (relative stereo),5.51,1.7,2600,< 4.00,13,–,> 60,0.053,< 5.00,< 4.00,< 4.00,6.96,–,–,< 6.00,7200,< 10,< 6.00,< 10,< 5.00,AUC [13]: 310 ng·h/mL; Cmax [14]: 290 ng/mL; GI50 (MDA-MB-231): < 10 nM; Activity (Mus musculus): Non-toxic; GI50 [17]: 17800 nM
COc1ccc2c(c1)/C(=C\c1ccc3c(/C=C/c4ccc(N5CCN(C)CC5)nc4)n[nH]c3c1)C(=O)N2,–,< 0.1,90,–,2,8.14,14,0.009,< 6.00,–,–,–,–,> 10000,5.80,190,–,6.10,< 10,–,IC50 at 45 min (CYP2D6): > 10000 nM

# — ChEMBL document CHEMBL3351767, “The discovery of Polo-like kinase 4 inhibitors: design and optimization of spiro[cyclopropane-1,3'[3H]indol]-2'(1'H).ones as orally bioavailable antitumor agents” (J Med Chem, 2015)
